Read-outs that look alike come from different tables or passages of the source.
System: Pfeiffer cells, lymphoma cells having EZH2 mutation (A677G)
Test: Proliferation inhibition of cells of hematologic malignancies (CCK-8, 11 days)
Assay type: cell-based
Details: 11 days culture, read-out: Cell proliferation inhibitory effect (IC50)
Method: The growth inhibitory activity of 1,3-benzodioxole derivative compounds represented by chemical formula I of the present invention against Pfeiffer cells, which are lymphoma cells having EZH2 mutation (A677G), was evaluated.
Pfeiffer was cultured using RPMI1640 containing 10% fetal bovine serum. The cells were inoculated into wells of a 96-well culture dish at 10,000 cells each, and cultured for 11 days after treating with the test material for each concentration. For 11 days, the test material was replaced every three to four days. After culturing, the cells were treated with a cell counting kit-8 (CCK-8) reagent for each well, absorbance was measured at 450 nm, and IC50 values for cell proliferation were obtained through curve fitting of non-linear regression in the GraphPad program (GraphPad Prism 5.0 software).

IC50 [nM]	IC50 (Homo sapiens, Pfeiffer, 264 h) [nM]	Compound
10 to 100		CCN(C)c1ccc(-c2cc(C(=O)NCc3c(SC)cc(C)[nH]c3=O)c(C)c3c2OC(C)(C2CCN(CC(F)(F)F)CC2)O3)cn1 (stereo not shown) [Compound 87, 7-(6-(ethyl(methyl)amino)pyridin-3-yl)-2,4-dimethyl-N-((6-methyl-4-(methylthio)-2-oxo-1,2-dihydropyridin-3-yl)methyl)-2-(1-(2,2,2-trifluoroethyl)piperidin-4-vi)benzo[d][1,3]dioxole-5-carboxamide]
≥ 100		CSc1cc(C)[nH]c(=O)c1CNC(=O)c1cc(-c2ccc(N3C[C@@H](C)O[C@@H](C)C3)nc2)c2c(c1C)OC(C)(C1CCN(C(C)C)CC1)O2 (single isomer, unassigned) [Compound 52]
	≤ 10	COCCN(C)[C@H]1CC[C@H](C2(C)Oc3c(-c4ccc(OC)nc4)cc(C(=O)NCc4c(SC)cc(C)[nH]c4=O)c(C)c3O2)CC1 (stereo partly drawn) [Compound 28, 2-(trans-4-((2-methoxyethyl)(methyl)amino)cyclohexyl)-7-(6-methoxypyridin-3-yl)-2,4-dimethyl-N-((6-methyl-4-(methylthio)-2-oxo-1,2-dihydropyridin-3-yl)methyl)benzo[d][1,3]dioxole-5-carboxamide]
	≤ 10	CSc1cc(C)[nH]c(=O)c1CNC(=O)c1cc(-c2cnc(N3CCOCC3)nc2)c2c(c1C)OC(C)(C1CCN(CC(F)(F)F)CC1)O2 (stereo not shown) [Compound 68, 2,4-dimethyl-N-((6-methyl-4-(methylthio)-2-oxo-1,2-dihydropyridin-3-yl)methyl)-7-(2-morpholinopyrimidin-5-yl)-2-(1-(2,2,2-trifluoro)piperidin-4-yl)benzo[d][1,3]dioxole-5-carboxamide]
≥ 100		CCN1CCC(C2(C)Oc3c(-c4ccc(N5CCOCC5)nc4)cc(C(=O)NCc4c(SC)cc(C)[nH]c4=O)c(C)c3O2)CC1 (single isomer, unassigned) [Compound 67, 2-(1-ethylpiperidin-4-yl)-2,4-dimethyl-N-((6-methyl-4-(methylthio)-2-oxo-1,2-dihydropyridin-3-yl)methyl)-7-(6-morpholinopyridin-3-yl)benzo[d][1,3]dioxole-5-carboxamide]
≤ 10		CSc1cc(C)[nH]c(=O)c1CNC(=O)c1cc(-c2ccc(N3C[C@@H](C)O[C@@H](C)C3)nc2)c2c(c1C)OC(C)(C1CCN(C(=O)C(F)(F)F)CC1)O2 (single isomer, unassigned) [Compound 59]
	≤ 10	CCCOCCN(C)[C@H]1CC[C@H](C2(C)Oc3c(-c4ccc(N5C[C@@H](C)O[C@@H](C)C5)nc4)cc(C(=O)NCc4c(SC)cc(C)[nH]c4=O)c(C)c3O2)CC1 (stereo partly drawn) [Compound 30, 7-(6-((2S,6R)-2,6-dimethylmorpholino)pyridin-3-yl)-2,4-dimethyl-2-(trans-4-(methyl(2-propoxyethyl)amino)cyclohexyl)-N-((6-methyl-4-(methylthio)-2-oxo-1,2-dihydropyridin-3-yl)methyl)benzo[d][1,3]dioxole-5-carboxamide]
≥ 100		CCN1CCC(C2(C)Oc3c(-c4cnc(N(C)CC)nc4)cc(C(=O)NCc4c(SC)cc(C)[nH]c4=O)c(C)c3O2)CC1 (single isomer, unassigned) [Compound 84, 7-(2-(ethyl(methyl)amino)pyrimidin-5-yl)-2-(1-ethylpiperidin-4-yl)-2,4-dimethyl-N-((6-methyl-4-(methylthio)-2-oxo-1,2-dihydropyridin-3-yl)methyl)benzo[d][1,3]dioxole-5-carboxamide]
	≤ 10	CSc1cc(C)[nH]c(=O)c1CNC(=O)c1cc(-c2ccc(Cl)s2)c2c(c1C)OC(C)([C@H]1CC[C@H](N(C)C)CC1)O2 (stereo partly drawn) [Compound 19, 7-(5-chlorothiophen-2-yl)-2-(trans-4-(dimethylamino)cyclohexyl)-2,4-dimethyl-N-((6-methyl-4-(methylthio)-2-oxo-1,2-dihydropyridin-3-yl)methyl)benzo[d][1,3]dioxole-5-carboxamide]
	≤ 10	CSc1cc(C)[nH]c(=O)c1CNC(=O)c1cc(-c2ccc(N3C[C@@H](C)O[C@@H](C)C3)nc2)c2c(c1C)OC(C)([C@H]1CC[C@H](N(C)C[C@H](C)O)CC1)O2 (stereo partly drawn) [Compound 29, 7-(6-((2S,6R)-2,6-dimethylmorpholino)pyridin-3-yl)-2-(trans-4-(((S)-2-hydroxypropyl)(methyl)amino)cyclohexyl)-2,4-dimethyl-N-((6-methyl-4-(methylthio)-2-oxo-1,2-dihydropyridin-3-yl)methyl)benzo[d][1,3]dioxole-5-carboxamide]
≤ 10		CCN1CCN(c2ncc(-c3cc(C(=O)NCc4c(SC)cc(C)[nH]c4=O)c(C)c4c3OC(C)(C3CCN(CC(F)(F)F)CC3)O4)cn2)CC1 (single isomer, unassigned) [Compound 76, 7-(2-(4-ethylpiperazin-1-yl)pyrimidin-5-yl)-2,4-dimethyl-N-((6-methyl-4-(methylthio)-2-oxo-1,2-dihydropyridin-3-yl)methyl)-2-(1-(2,2,2-trifluoroethyl)piperidin-4-yl)benzo[d][1,3]dioxole-5-carboxamide]
	10 to 100	COc1ccc(F)cc1-c1cc(C(=O)NCc2c(SC)cc(C)[nH]c2=O)c(C)c2c1OC(C)([C@H]1CC[C@H](N(C)C)CC1)O2 (stereo partly drawn) [Compound 12, 2-(trans-4-(dimethylamino)cyclohexyl)-7-(5-fluoro-2-methoxyphenyl)-2,4-dimethyl-N-((6-methyl-4-(methylthio)-2-oxo-1,2-dihydropyridin-3-yl)methyl)benzo[d][1,3]dioxole-5-carboxamide]
	≤ 10	CSc1cc(C)[nH]c(=O)c1CNC(=O)c1cc(-c2ccsc2)c2c(c1C)OC(C)(C1CCC(N(C)C)CC1)O2 (stereo not shown) [Compound 42, 2-(4-(dimethylamino)cyclohexyl)-2,4-dimethyl-N-((6-methyl-4-(methylthio)-2-oxo-1,2-dihydropyridin-3-yl)methyl)-7-(thiophen-3-yl)benzo[d][1,3]dioxole-5-carboxamide]
≤ 10		CSc1cc(C)[nH]c(=O)c1CNC(=O)c1cc(-c2ccc(N3C[C@@H](C)O[C@@H](C)C3)nc2)c2c(c1C)OC(C)(C1CCN(CC(F)(F)F)CC1)O2 (single isomer, unassigned) [Compound 44]
	≤ 10	CSc1cc(C)[nH]c(=O)c1CNC(=O)c1cc(-c2cnc(N3CCCCC3)nc2)c2c(c1C)OC(C)([C@H]1CC[C@H](N(C)C)CC1)O2 (stereo partly drawn) [Compound 4, 2-(trans-4-(dimethylamino)cyclohexyl)-2,4-dimethyl-N-((6-methyl-4-(methylthio)-2-oxo-1,2-dihydropyridin-3-yl)methyl)-7-(2-(piperidin-1-yl)pyrimidin-5-yl)benzo[d][1,3]dioxole-5-carboxamide]
≥ 100		CCN1CCC(C2(C)Oc3c(-c4ccc(N5C[C@@H](C)O[C@@H](C)C5)nc4)cc(C(=O)NCc4c(SC)cc(C)[nH]c4=O)c(C)c3O2)CC1 (single isomer, unassigned) [Compound 50]
≤ 10		CSc1cc(C)[nH]c(=O)c1CNC(=O)c1cc(-c2ccc(N3CCOCC3)nc2)c2c(c1C)OC(C)(C1CCN(CC(F)F)CC1)O2 (single isomer, unassigned) [Compound 64, 2-(1-(2,2-difluoroethyl)piperidin-4-yl)-2,4-dimethyl-N-((6-methyl-4-(methylthio)-2-oxo-1,2-dihydropyridin-3-yl)methyl)-7-(6-morpholinopyridin-3-yl)benzo[d][1,3]dioxole-5-carboxamide]
	≤ 10	CSc1cc(C)[nH]c(=O)c1CNC(=O)c1cc(-c2cnc(N(C)C)nc2)c2c(c1C)OC(C)(C1CCN(CC(F)(F)F)CC1)O2 (stereo not shown) [Compound 35, 7-(2-(dimethylamino)pyrimidin-5-yl)-2,4-dimethyl-N-((6-methyl-4-(methylthio)-2-oxo-1,2-dihydropyridin-3-yl)methyl)-2-(1-(2,2,2-trifluoroethyl)piperidin-4-yl)benzo[d][1,3]dioxole-5-carboxamide]
≥ 100		CSc1cc(C)[nH]c(=O)c1CNC(=O)c1cc(-c2ccc(N3C[C@@H](C)O[C@@H](C)C3)nc2)c2c(c1C)OC(C)(C1CCN(C(=O)C(F)(F)F)CC1)O2 (single isomer, unassigned) [Compound 60]
	≥ 100	CSc1cc(C)[nH]c(=O)c1CNC(=O)c1cc(-c2ccc(N3C[C@@H](C)O[C@@H](C)C3)nc2)c2c(c1C)OC(C)([C@H]1CC[C@H](N3CC(OC(C)C)C3)CC1)O2 (stereo partly drawn) [Compound 105, 7-(6-((2S,6R)-2,6-dimethylmorpholino)pyridin-3-yl)-2-(trans-4-(3-isopropoxyazetidin-1-yl)cyclohexyl)-2,4-dimethyl-N-((6-methyl-4-(methylthio)-2-oxo-1,2-dihydropyridin-3-yl)methyl)benzo[d][1,3]dioxole-5-carboxamide]
	≤ 10	COC(CN(C)[C@H]1CC[C@H](C2(C)Oc3c(-c4ccc(N5C[C@@H](C)O[C@@H](C)C5)nc4)cc(C(=O)NCc4c(SC)cc(C)[nH]c4=O)c(C)c3O2)CC1)OC (stereo partly drawn) [Compound 31, 2-(trans-4-((2,2-dimethoxyethyl)(methyl)amino)cyclohexyl)-7-(6-((2S,6R)-2,6-dimethylmorpholino)pyridin-3-yl)-2,4-dimethyl-N-((6-methyl-4-(methylthio)-2-oxo-1,2-dihydropyridin-3-yl)methyl)benzo[d][1,3]dioxole-5-carboxamide]
≤ 10		CSc1cc(C)[nH]c(=O)c1CNC(=O)c1cc(-c2ccc(N3C[C@@H](C)O[C@@H](C)C3)nc2)c2c(c1C)OC(C)(C1CCN(C3CCCCC3)CC1)O2 (single isomer, unassigned) [Compound 53]
